# Source: US11001872B2, “Designing customized protein-specific buffer system” (priority 2015, dated 2021)
# Where two headings read alike, the source gives them in different places.
# Assays:
# [1] = system: Tryptophan hydroxylase (TH); conditions: cited from earlier work; for effect of buffer on TH stability: tested at same pH and salt concentration; for effect on TH melting temperature: buffer of 20 mM HEPES/NaOH and 100 mM (NH4)2SO4 (pH 7.0)
# [2] = system: protein sample; assay: Protein stability screen: protein melting point temperature in MES/BTP buffer mixture; format: physicochemical
# Description: In one embodiment, the present invention contemplates a method comprising a physiologic buffer mixture having a temperature-stable pKa to identify test compounds that increase stability of a sample protein by performing a protein melting point temperature screen. […] Although it is not necessary to understand the mechanism of an invention it is believed that a protein stability screen acts to define the bulk properties of a solution system (i.e. impact of pH, ionic strength, buffer etc.) and not just one specific component like most of the other screening conditions. The buffer system also acts as an internal control that simultaneously compares new and old conditions under identical conditions. Although commonly used previously, a urea stability test provides validation and verification of all testing parameters by comparative analysis with historical literature. DMSO screening allows for the nomination of conditions where protein compounds are usually insoluble (e.g., for example, drug binding studies) to identify the proper use of DMSO to solubilize these compounds without effecting the performance of the intended assay.
# See, FIG. 1. […] See, FIG. 3. […] See, FIG. 4. […] See, FIG. 5. […] See, FIG. 6.
# A metal ion screen was performed that compared the relative effects of five (5) different metal chloride ions, each at two different concentrations. See, FIG. 7. […] See, FIG. 8.
# In one embodiment, the kit instructions comprise the following steps: • i) pre-chill the RT-PCR plate at 4° C. for 15-30 minutes prior to the addition of reagents and/or protein sample to each of the wells. • ii) The dye vial and kit plates should be stored at −20° C. and away from light until the time of use. • iii) Add 5 μl of dye to 500 μl of protein sample. The dye to protein ratio can be modified to any particular protein. For example, smaller proteins or proteins with a small hydrophobic core may require an increased dye concentration. • iv) Transfer 5 μl of each solution from the well plate to a corresponding well of the RT-PCR plate. • v) Add 5 μl of the protein/dye mixture to each well of the RT-PCR plate (>0.5 mg/ml). • vi) Mix the solutions by pipetting up and down (˜5 times). • a) gently placing all solutions at the bottom of the avoids subsequent plate centrifugation. • vii) Seal the RT-PCR plate. • viii) Immediately load the TR-PCR plate into the instrument and begin the programmed heating schedule (approximate timeframe=62 minutes), for example: • a) Heat to 20 C • b) Ramp to 90 C in 0.5 C increments. • c) Ramp to 4 C with a two minute schedule. • ix) Upload stored data file to a designated website (e.g., for example, caymanchem.com/deltatm) and follow the instructions.
# [3] = target: T1, Dwarf27 protein (Oryza sativa subsp. japonica, UniProt C7AU21); assay: Dwarf27 protein stability screen in MES-BTP buffer mixture (melting point temperature); format: physicochemical; conditions: for concentration for customized buffer system for Dwarf27: MES-BTP, Spyro Orange; for effect on protein Tm as compared to the control Tm: Dwarf27 (D27), concentration screen, FIG. 16
# T1 sequence (C7AU21 41-278): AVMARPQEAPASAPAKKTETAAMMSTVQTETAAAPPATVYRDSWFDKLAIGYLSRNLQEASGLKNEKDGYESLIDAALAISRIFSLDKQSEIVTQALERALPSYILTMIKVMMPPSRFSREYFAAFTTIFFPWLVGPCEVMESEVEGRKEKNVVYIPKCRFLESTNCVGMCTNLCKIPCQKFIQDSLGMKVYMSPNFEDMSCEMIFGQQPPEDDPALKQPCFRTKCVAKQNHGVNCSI
# Description: Many methods have been used to describe protein stability. A primary method of early literature was the urea degradation study. As a point of comparative reference to this early literature, the present invention maintains a concentration dependent measure of protein stability relative to urea concentration. […] See, FIG. 16A. […] See, FIG. 16B.
# See, FIG. 17A. In one embodiment, the present invention contemplates a multi-component single buffer mixture characterized by: i) a low delta specific heat (CP); ii) low buffer-buffer interactions; iii) low divalent cation chelation; and iv) buffering capacity over a wide pH range. In one embodiment, the multi-component single buffer mixture comprises MES and BTP. See, FIG. 17B. […] The optimal pH for Dwarf27 protein was determined by other methods to be pH 7.5 (data not shown).
# Data was collected using a Spyro Orange fluorophore.
# The integrated analysis compared the differences in inflection points of these protein melting temperature point screens to identify Dwarf27 protein melting point profiles. See, FIG. 19.
# [4] = Kipp et al., cited from earlier work; for ΔpH=pH(60° C.)−pH(25° C.): 0.1 M, initial pH=7 (25° C.), PHTEMP simulation
# [5] = system: protein sample; assay: Cryoprotection protein melting point temperature screen; format: physicochemical
# Procedure: For example, a protein melting point temperature screen was performed using sucrose at several different concentrations. […] See, FIG. 10. […] See, FIG. 11. […] See, FIG. 12.
# Conversely, the present method can also identify compounds that might not be expected to provide quality cryoprotectant effects. For example, glycerol is widely accepted to provide cryoprotection. […] See, FIG. 13. […] This is opposite to what one would expect for an indicative parameter to identify a quality cryoprotectant. […] Although it is not necessary to understand the mechanism of an invention, it is believed that the use of such an improved cryoprotectant improves stability for nearly two years. […] See, FIG. 14.
# [6] = Hoefmeister Series screen, higher Tm
# [7] = cryoprotection screen, dose response
smiles,measurement,setting,value
OCC(CO)(CO)NCCCNC(CO)(CO)CO [Bis Tris Propane],effect of buffer on TH stability,[1],no significant effect on stability
"C[S+](C)[O-] [DMSO, dimethyl sulfoxide]",effect on protein melting point temperature,"[2]; buffer mixture of MES and BTP, concentration screen",consistently increased protein melting point temperatures
same,concentration for customized buffer system for Dwarf27,[3],7%
"O=S(=O)(O)CCN1CCN(CCO)CC1 [HEPES, 4-(2-hydroxyethyl)-1-piperazine ethanesulfonic acid]",effect of buffer on TH stability,[1],no significant effect on stability
"O=S(=O)(O)CCCN1CCOCC1 [MOPS, 3-(N-morpholino)propanesulfonic acid]",effect of buffer on TH stability,[1],no significant effect on stability
"O=S(=O)(O)CCN1CCN(CCS(=O)(=O)O)CC1 [PIPES, piperazine-N,N′-bis(2-ethanesulfonic acid]",concentration for customized buffer system for Dwarf27,[3],100 mM
CC(=O)O [acetic acid],ΔpH=pH(60° C.)−pH(25° C.),[4],approximately 0
same,ΔH zero (enthalpy of acid dissociation),[4],-0.1 kcal/mol
Cl.N [ammonium chloride],effect on protein stability (Tm),[2]; [6],improved the stability of the protein
N.N.O=S(=O)(O)O [ammonium sulphate],effect on protein Tm as compared to the control Tm,[3],concentration-dependent increase in protein Tm
O.O.[Ca+2].[Cl-].[Cl-] [calcium chloride dihydrate],effect on protein stability (Tm),[2],improved the stability of the protein
[Cl][Co][Cl] [cobalt chloride],concentration for customized buffer system for Dwarf27,[3],0.005 to 0.025 mM
OCCO [ethylene glycol],effect on protein melting point temperature,[5]; [7],dose-dependent decrease in protein melting point temperatures
N[C@@H](CCC(=O)O)C(=O)O [glutamic acid],concentration for customized buffer system for Dwarf27,[3],25 mM
OCC(O)CO [glycerol],effect on protein melting point temperature,"[2]; MES/BTP, glycerol concentrations above 10%",raised the protein melting temperature
same,effect on protein melting point temperature,"[2]; MES/BTP, glycerol concentrations below 10%",lowered the protein melting point temperature
same,effect on protein melting point temperature,[5]; [7],dose-dependent decrease in protein melting point temperature
same,concentration for customized buffer system for Dwarf27,[3],2.5%
same,effect on TH melting temperature,[1],increased melting temperature
Cl.N=C(N)N [guanidinium hydrochloride],effect on protein stability (Tm),[2]; [6],improved the stability of the protein
[Cl-].[Li+] [lithium chloride],effect on protein stability (Tm),[2]; [6],improved the stability of the protein
[Cl-].[K+] [potassium chloride],effect on protein stability (Tm),[2]; [6],improved the stability of the protein
CC(=O)[O-].O.O.O.[Na+] [sodium acetate trihydrate],effect on protein stability (Tm),[2],improved the stability of the protein
O=C([O-])CC(O)(CC(=O)[O-])C(=O)[O-].[Na+].[Na+].[Na+] [sodium citrate tribasic],effect on protein stability (Tm),[2],improved the stability of the protein
[F-].[Na+] [sodium fluoride],effect on protein stability (Tm),[2]; [6],improved the stability of the protein
[I-].[Na+] [sodium iodide],effect on protein stability (Tm),[2]; [6],improved the stability of the protein
O=[N+]([O-])[O-].[Na+] [sodium nitrate],effect on protein stability (Tm),[2]; [6],improved the stability of the protein
O=P([O-])([O-])O.[Na+].[Na+] [sodium phosphate dibasic],effect on protein stability (Tm),[2]; [6],improved the stability of the protein
same,concentration for customized buffer system for Dwarf27,[3],50 mM
O.O.O.O.O.O.O.O.O.O.O=S(=O)([O-])[O-].[Na+].[Na+] [sodium sulphate decahydrate],effect on protein stability (Tm),[2],improved the stability of the protein
O=C([O-])C(O)C(O)C(=O)[O-].[Na+].[Na+] (stereo not drawn) [sodium tartrate dibasic],effect on protein stability (Tm),[2]; [6],improved the stability of the protein
N#C[S-].[Na+] [sodium thiocynate],effect on protein stability (Tm),[2]; [6],improved the stability of the protein
OC[C@@H](O)[C@@H](O)[C@H](O)[C@@H](O)CO [sorbitol],effect on TH melting temperature,[1],increased melting temperature
OC[C@H]1O[C@@](CO)(O[C@H]2O[C@H](CO)[C@@H](O)[C@H](O)[C@H]2O)[C@@H](O)[C@@H]1O [sucrose],effect on protein melting point temperature,[5]; 25% sucrose and 30% sucrose,raised the melting point temperature
same,effect on TH melting temperature,[1],increased melting temperature
O=S(=O)(O)O [sulfuric acid],ΔpH=pH(60° C.)−pH(25° C.),[4],approximately −0.4
same,ΔH zero 1,[4],-12 kcal/mol
same,ΔH zero 2,[4],-5.4 kcal/mol
OC[C@H]1O[C@H](O[C@H]2O[C@H](CO)[C@@H](O)[C@H](O)[C@H]2O)[C@H](O)[C@@H](O)[C@@H]1O [trehalose],increase in protein melting temperature relative to sucrose,[5]; cryoprotection screen,more pronounced than sucrose
CCN(CC)CC [triethylamine],ΔpH=pH(60° C.)−pH(25° C.),[4],approximately −0.8
same,ΔH zero (enthalpy of acid dissociation),[4],10.4 kcal/mol
NC(N)=O [urea],effect on protein,"[2]; MES/BTP, urea concentrations in excess of 1.75 M, no melting point determinable",complete protein denaturation
same,effect on protein melting point temperature,"[2]; MES/BTP, urea under 0.5 M or between 0.75-1.75 M",lower protein melting point temperatures
same,effect on protein Tm as compared to the control Tm,[3],generalized decreases in protein Tm
OC[C@@H](O)[C@H](O)[C@@H](O)CO [xylitol],effect on protein melting temperature in comparison to sucrose or trehalose,[5]; e.g. 30%,raised the protein melting temperature a full degree
